The values that follow come from US20160281050A1, “METHODS FOR TREATING A CULTURE OF HAEMATOCOCCUS PLUVIALIS FOR CONTAMINATION USING SALT AND HYDROGEN PEROXIDE” (HELIAE DEVELOPMENT LLC, priority 2015, published 2016).

Series [1] has as its system chytrid zoospores and sporangia. The following applies: 1% dose of a solution comprising 50% NaOH; 25, 40, and 50° C. The method, then: A solution comprising 50% sodium hydroxide (NaOH) was evaluated as a treatment for chytrids that could be applied to empty reactors in order to clean them for subsequent batches. A pure culture of chytrid zoospores and sporangia was treated with a 1% dose of a solution comprising 50% NaOH at temperatures of 25, 40, and 50° C. The cultures were then observed under a microscope for a reduction in the chytrid zoospores or sporangia number, or a reduction in the integrity of the chytrid cells.

The subject of series [2] is Haematococcus pluvialis (Strain 1).
A further series relates to pure chytrid culture. The series can be described thus: Chytrid tolerance: pure chytrid culture in well plate, observed under a microscope (Examples 13-14). The format is cell-based. The following applies: 40 ppm. The method, then:
Experiments were performed to determine chytrid tolerance to bleach, salt, Lufenuron (chemical biocide), and Rid Fungus (blend of natural organic herbs) for evaluation as a treatment for chytrids. A pure chytrid culture in a well plate was treated every 24 hours and observed under a microscope to determine the effect. An untreated culture was used as a control for comparison purposes. Qualitative assessments and quantitative estimates were made by visual observation under a microscope.
Several concentrations of salt and Rid Fungus (blend of organic herbs) were further investigated as a chytrid treatment, as in Example 13. A pure chytrid culture in a well plate was treated and visually observed under a microscope to determine the effect. An untreated culture was used as a control for comparison purposes.

In another series the test system is chytrids. The series can be described thus: Haematococcus red cyst cells infected with chytrids treated in well plates (Example 15). The format is cell-based. The method, then:
Several concentrations of bleach and Lufenuron were further investigated for their effectiveness as chytrid treatments for Haematococcus pluvialis during culturing. Cultures of Haematococcus pluvialis (Strain 1) red cyst cells infected with chytrids were treated in well plates (0.5 mL volume) with bleach or Lufenuron to evaluate the effect on the Haematococcus cells if bleach or Lufenuron were to be used as a contamination treatment. A first control culture of Haematococcus red cyst cells absent of chytrids and a second control culture of healthy Haematococcus red cyst cells inoculated with chytrids were used as comparisons for the treatments. The cultures were treated with bleach at or less than the tolerance level of Haematococcus: 0.01, 0.02 and 0.03 mL/L of 12.5% stock concentration bleach (calculated concentration 0.00125, 0.0025, and 0.00375 mL/L), or different concentrations of Lufenuron (0.01, 0.1 and 1% of culture volume). The cultures were observed under a microscope during the experiment to determine effectiveness.

Regarding `[Na+].[OH-]` [NaOH, sodium hydroxide], the “reduction in chytrid zoospores or sporangia number or integrity” value in series [1] is “not a reduction in chytrid zoospores or sporangia number or integrity”.
With bleach, the “known tolerance of Haematococcus pluvialis (Strain 1)” value in series [2] was 0.00375 mL/L.
As to `O=C(NC(=O)c1c(F)cccc1F)Nc1cc(Cl)c(OC(F)(F)C(F)C(F)(F)F)cc1Cl` (stereo not drawn) [Lufenuron], the “microscope observation of pure chytrid culture” value is “swimming zoospores” with pure chytrid culture (after 1 hour); “Swimming zoospores” in the series on pure chytrid culture (after 24 hours); “heavy bacteria with sporangia and zoospores” in the series with pure chytrid culture (after 48 hours and 72 hours). In addition, the “microscope observation of infected red cyst culture” value in the series on chytrids (0.01% of culture volume, after 24 and 48 hours) is “swimming zoospores and positive infection”; in the series with chytrids (0.01% of culture volume, after 72 hours), “Some swimming zoospores, Ochromonas (single-celled, motile, golden-brown alga), and active infection”; with chytrids (0.10% of culture volume, after 24 and 48 hours) it was “dead sporangia, some infection, and active zoospores”; with chytrids (0.10% of culture volume, after 72 hours), “Some swimming zoospores and active infection”; in the series on chytrids (1.00% of culture volume, after 24 hours), “dead sporangia and zoospores attached to cyst cells”; in the series on chytrids (1.00% of culture volume, after 48 hours), “Ochromonas, bacteria, dead sporangia, zoospores attached to cyst cells, and few swimming zoospores”. In the series on chytrids (1.00% of culture volume, after 72 hours), the “microscope observation of infected red cyst culture” value was “Ochromonas, no active infection, and no zoospores”.
